Active and inactive are the calls of the source. The rule behind the calls is not given here.
Experiments:
Salmonella enterica = test: Antibacterial activity against Salmonella enterica ATCC 14028 assessed as reduction in bacterial growth after 24 hrs by CLSI protocol based analysis; format: functional
Staphylococcus aureus [1] = test: Antibacterial activity against methicillin-resistant Staphylococcus aureus ATCC 43300 assessed as reduction in bacterial growth incubated for 24 hrs by CLSI protocol based analysis; format: functional
Trichophyton rubrum = test: Antifungal activity against Trichophyton rubrum NBRC 9185 assessed as inhibition of fungal growth incubated for 96 hrs by CLSI protocol based analysis; format: functional
SH-SY5Y [2] = test: Neuroprotective activity against MPP-induced cytotoxicity in human SH-SY5Y cells assessed as decrease in cell death at 10 umol/L preincubated with compound for 24 hrs followed by MPP addition and measured after 24 hrs by MTT assay; format: functional, cell-based; conditions: dose 10.0 µmol/L, time 48.0 hrs
SH-SY5Y [3] = test: Neuroprotective activity against MPP-induced cytotoxicity in human SH-SY5Y cells assessed as decrease in Bak mRNA expression level at 10 umol/L by RT-qPCR analysis; format: functional, cell-based; conditions: dose 10.0 µmol/L
Escherichia coli = test: Antibacterial activity against Escherichia coli ATCC 25922 assessed as reduction in bacterial growth after 24 hrs by CLSI protocol based analysis; format: functional
SH-SY5Y [4] = test: Neuroprotective activity against MPP-induced cytotoxicity in human SH-SY5Y cells assessed as increase in Bcl-xL mRNA expression level at 10 umol/L by RT-qPCR analysis; format: functional, cell-based; conditions: dose 10.0 µmol/L
Enterococcus faecium = test: Antibacterial activity against Enterococcus faecium ATCC 19434 assessed as reduction in bacterial growth after 24 hrs by CLSI protocol based analysis; format: functional
Candida albicans = test: Antifungal activity against Candida albicans ATCC 10231 assessed as reduction in fungal growth incubated for 24 hrs by CLSI protocol based analysis; format: functional
Klebsiella pneumoniae = test: Antibacterial activity against Klebsiella pneumoniae ATCC 10031 assessed as reduction in bacterial growth after 24 hrs by CLSI protocol based analysis; format: functional
Enterococcus faecalis = test: Antibacterial activity against Enterococcus faecalis ATCC 19433 assessed as reduction in bacterial growth after 24 hrs by CLSI protocol based analysis; format: functional
[5] = tested on: Mycobacterium tuberculosis; test: Antitubercular activity against wild type Mycobacterium tuberculosis mc2 6230 assessed as bacterial growth inhibition incubated for 5 days by resazurin microtiter assay; format: functional; conditions: mc2 6230, 120 h, time 5 day
Aspergillus fumigatus = test: Antifungal activity against Aspergillus fumigatus HIC 6094 assessed as inhibition of fungal growth incubated for 48 hrs by CLSI protocol based analysis; format: functional
Staphylococcus aureus [6] = test: Antibacterial activity against Staphylococcus aureus ATCC 25923 assessed as reduction in bacterial growth incubated for 24 hrs by CLSI protocol based analysis; format: functional
[7] = tested on: Trichophyton mentagrophytes; test: Antifungal activity against Trichophyton mentagrophytes IFM 40996 assessed as inhibition of fungal growth incubated for 96 hrs by CLSI protocol based analysis; format: functional

Structure (SMILES): CCC/C=C/C=C/C=C/[C@@H](O)C[C@]1(O)O[C@H](C[C@H](O)[C@@H](O)[C@H](O)[C@H]2OC(=O)[C@@H](C)[C@@H]2O)[C@@H](O)[C@H](O)[C@@H]1O
- MIC (Salmonella enterica): > 128 µg/mL
- MIC (Staphylococcus aureus [1]): > 128 µg/mL
- MIC (Trichophyton rubrum): > 128 µg/mL
- Activity (SH-SY5Y [2]): Active
- Activity (SH-SY5Y [3]): Active
- MIC (Escherichia coli): > 128 µg/mL
- Activity (SH-SY5Y [4]): Active
- MIC (Enterococcus faecium): > 128 µg/mL
- MIC (Candida albicans): > 128 µg/mL
- MIC (Klebsiella pneumoniae): > 128 µg/mL
- MIC (Enterococcus faecalis): > 128 µg/mL
- MIC [5]: > 128 µg/mL
- MIC (Aspergillus fumigatus): > 128 µg/mL
- MIC (Staphylococcus aureus [6]): > 128 µg/mL
- MIC [7]: > 128 µg/mL

From ChEMBL document CHEMBL5344449, “Retinestatin, a Polyol Polyketide from a Termite Nest-Derived Streptomyces sp” (2024)
